Molecular target: T1, full length human farnesoid X receptor (Homo sapiens, UniProt Q96RI1)
T1 construct: CMX-farnesoid X receptor (full length human farnesoid X receptor); expressed in transfected cells; host or cells: CV-1 African Green Monkey Kidney cells
T1 sequence (Q96RI1 1-472 isoform Q96RI1-2): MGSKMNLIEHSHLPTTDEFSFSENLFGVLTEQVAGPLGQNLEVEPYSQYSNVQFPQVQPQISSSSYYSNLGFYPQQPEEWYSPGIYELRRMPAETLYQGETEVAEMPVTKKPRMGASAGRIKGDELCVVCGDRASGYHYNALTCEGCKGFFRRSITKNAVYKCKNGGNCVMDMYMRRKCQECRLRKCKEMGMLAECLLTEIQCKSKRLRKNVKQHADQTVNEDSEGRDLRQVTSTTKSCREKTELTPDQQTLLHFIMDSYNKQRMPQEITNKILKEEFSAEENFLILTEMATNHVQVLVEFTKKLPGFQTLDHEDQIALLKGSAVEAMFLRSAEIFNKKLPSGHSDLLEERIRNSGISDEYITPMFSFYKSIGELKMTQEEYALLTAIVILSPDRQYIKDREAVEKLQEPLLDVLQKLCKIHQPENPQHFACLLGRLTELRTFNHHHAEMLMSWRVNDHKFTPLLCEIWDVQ
T1 sequence (P19793 1-462 partner): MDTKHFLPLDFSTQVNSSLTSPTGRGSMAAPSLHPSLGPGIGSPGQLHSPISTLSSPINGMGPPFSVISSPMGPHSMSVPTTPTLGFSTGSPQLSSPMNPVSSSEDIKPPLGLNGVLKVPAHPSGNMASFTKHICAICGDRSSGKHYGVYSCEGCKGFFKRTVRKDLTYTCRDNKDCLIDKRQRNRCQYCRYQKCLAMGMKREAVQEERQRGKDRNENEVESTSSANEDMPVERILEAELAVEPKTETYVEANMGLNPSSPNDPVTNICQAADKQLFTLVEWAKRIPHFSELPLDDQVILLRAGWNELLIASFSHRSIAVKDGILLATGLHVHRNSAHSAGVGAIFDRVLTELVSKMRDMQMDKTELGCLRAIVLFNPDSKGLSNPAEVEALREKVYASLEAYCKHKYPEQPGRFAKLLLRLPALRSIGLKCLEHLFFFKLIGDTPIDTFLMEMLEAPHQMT
Assay: farnesoid X receptor/ECREx7 co-transfection assay
Format: cell-based
Details: CV-1 cells, agonist mode
Protocol: The basic co-transfection protocol for measuring the farnesoid X receptor activity is as follows. CV-1 African Green Monkey Kidney cells were plated 24 hours before transfection to achieve approximately 70-80 percent confluency. Cells were transfected with the following expression vectors, CMX-farnesoid X receptor (full length human farnesoid X receptor), CMX-RXRα (full length human RXR), Luc12 ((ECREx7-Tk-Luciferase) luciferase reporter gene construct. (See WO 00/76523, Venkateswaran et al., (2000) J. Biol. Chem. 275 14700-14707). A CMX-β-Galactosidase expression vector was used as a transfection control. The transfection reagent used was DOTAP (Boehringer Mannheim). Cells were incubated with the DOTAP/DNA mixture for 5 hours after which the cells were harvested and plated onto either 96 well or 384 well plates containing the appropriate concentration of test compound. The assay was allowed to continue for an additional 18-20 hours, after which the cells were lysed, with lysis buffer (1% triton X 100, 10% glycerol, 5 mM Dithiothreitol, 1 mM EGTA, 25 mM Tricine, pH 7.8) and the luciferase activity measured in the presence of Luciferase assay buffer (0.73 mM ATP, 22.3 mM Tricine, 0.11 mM EGTA, 0.55 mM Luciferin, 0.15 mM Coenzyme A, 0.5 mM HEPES, 10 mM Magnesium sulphate) on a standard luminomter plate reader (PE Biosystems, NorthStar Reader), using recommended operating instructions and conditions.
Both the farnesoid X receptor/ECREx7 co-transfection assay (Example 10) and the TR-FRET assay (Example 9) can be used to establish the EC50/IC50 values for potency and percent activity or inhibition for efficacy. Efficacy defines the activity of a compound relative to a high control (chenodeoxycholic acid, CDCA) or a low control (DMSO/vehicle). The dose response curves are generated from an 8 point curve with concentrations differing by ½ LOG units. Each point represents the average of 4 wells of data from a 384 well plate. The curve for the data is generated by using the equation: Y=Bottom+(Top-Bottom)/(1+10^((Log EC50−X)*HillSlope))
The EC50/IC50 is therefore defined as the concentration at which an agonist or antagonist elicits a response that is half way between the Top (maximum) and Bottom (baseline) values. The EC50/IC50 values represented are the averages of at least 3 independent experiments. The determination of the relative efficacy or % control for an agonist is by comparison to the maximum response achieved by chenodeoxycholic acid that is measured individually in each dose response experiment.
For the antagonist assay, CDCA is added to each well of a 384 well plate to elicit a response. The % inhibition for each antagonist is therefore a measurement of the inhibition of the activity of CDCA. In this example, 100% inhibition would indicate that the activity of CDCA has been reduced to baseline levels, defined as the activity of the assay in the presence of DMSO only.

| Structure (SMILES) | EC50 [nM] |
| --- | --- |
| CCOC(=O)C1=CN(C(=O)c2ccc(F)cc2)CC(C)(C)c2c1[nH]c1c2CCCC1 [3-(4-Fluoro-benzoyl)-1,1-dimethyl-1,2,3,6,7,8,9,10-octahydro-azepino[4,5-b]indole-5-carboxylic acid ethyl ester] | ≤ 100 |
| CCOC(=O)C1=CN(C(=O)c2ccc(F)c(F)c2)CC(C)(C)c2cc(C(=O)OCC)[nH]c21 [6-(3,4-Difluoro-benzoyl)-4,4-dimethyl-1,4,5,6-tetrahydro-pyrrolo[2,3-d]azepine-2,8-dicarboxylic acid diethyl ester] | ≤ 100 |
| CCOC(=O)C1=CN(C(=O)c2ccc(F)cc2)CCc2c1[nH]c1c2CCCC1 [3-(4-Fluoro-benzoyl)-1,2,3,6,7,8,9,10-octahydro-azepino[4,5-b]indole-5-carboxylic acid ethyl ester] | ≤ 1000 |
| CCOC(=O)c1cc2c(n1C)C(C(=O)OC(C)C)=CN(C(=O)c1ccc(F)c(F)c1)CC2(C)C [6-(3,4-Difluoro-benzoyl)-1,4,4-trimethyl-1,4,5,6-tetrahydro-pyrrolo[2,3-d]azepine-2,8-dicarboxylic acid 2-ethyl ester 8-isopropyl ester] | ≤ 100 |
| CCOC(=O)c1cc2c([nH]1)C(C(=O)OC(C)C)=CN(C(=O)c1ccc(F)c(F)c1)CC2(C)C [6-(3,4-Difluoro-benzoyl)-4,4-dimethyl-1,4,5,6-tetrahydro-pyrrolo[2,3-d]azepine-2,8-dicarboxylic acid 2-ethyl ester 8-isopropyl ester] | ≤ 100 |
| CCOC(=O)C1CN(C(=O)c2ccc(F)cc2)CC(C)(C)c2c1[nH]c1c2CCCC1 (centres unmarked) [3-(4-Fluoro-benzoyl)-1,1-dimethyl-1,2,3,4,5,6,7,8,9,10-decahydro-azepino[4,5-b]indole-5-carboxylic acid ethyl ester] | ≤ 100 |
| CCOC(=O)C1=CN(C(=O)c2ccc(F)c(F)c2)CC(C)(C)c2ccsc21 [6-(3,4-Difluoro-benzoyl)-4,4-dimethyl-5,6-dihydro-4H-thieno[2,3-d]azepine-8-carboxylic acid ethyl ester] | ≤ 100 |

Same assay, conditions: relative to maximum response of chenodeoxycholic acid (CDCA)

| Structure (SMILES) | efficacy |
| --- | --- |
| CCOC(=O)C1=CN(C(=O)c2ccc(F)cc2)CCc2c1[nH]c1c2CCCC1 [3-(4-Fluoro-benzoyl)-1,2,3,6,7,8,9,10-octahydro-azepino[4,5-b]indole-5-carboxylic acid ethyl ester] | greater than 100% |

Reference: patent publication US8466143B2, “Azepine derivatives as pharmaceutical agents” (Exelixis, Inc., priority 2003, dated 2013)
